Common to all, as to type: cell-based
The subject of one assay is SW480 (colon cancer). In words: Antiproliferative activity (CCK-8 cell viability), SW480. Particulars: Homo sapiens, 72 h; for inhibition at 3.3 µM: Compound concentration: 3.3 μM; for inhibition at 3.3 µM / inhibition at 10 µM: read-out: Antiproliferative activity in cancerous cells, SW480 (inhibition of cell growth); for inhibition at 10 µM: Compound concentration: 10 μM; for inhibition at 30 µM: Compound concentration: 30 μM, read-out: Antiproliferative activity in cancerous cells, SW480. In a few lines: (§1)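 Cells were seeded at 2,000-5,000/well (HeLa in MEM, HepG2 and SW480 in DMEM, A549 in F-12K, all with 10% FBS) and treated with compound at 3.3, 10 or 30 μM for 72 h at 37° C. CCK-8 was added for 4 h, absorbance was read at 450 nm, and viability was expressed relative to DMSO-treated wells.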

Assay [1] has as its system MDA-MB-231 (breast cancer). In words: Antiproliferative activity (CCK-8 cell viability), MDA-MB-231. Particulars: Homo sapiens, 72 h; for inhibition at 3.3 µM: Compound concentration: 3.3 μM; for inhibition at 3.3 µM / inhibition at 10 µM: read-out: Antiproliferative activity in cancerous cells, MDA-MB-231 (inhibition of cell growth); for inhibition at 10 µM: Compound concentration: 10 μM. The method in brief: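 In this CCK-8 viability assay, MDA-MB-231 cells maintained in Dulbecco's modified Eagle's medium containing 10% fetal bovine serum were placed in 96-well plates (2,000-5,000 cells/well) and treated with compound for 72 h at 37° C. A 4 h incubation with 10 μL CCK-8 followed, plates were read at 450 nm, and viability was expressed against DMSO vehicle wells across replicates.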

The subject of assay [2] is B16F10 (malignant melanoma). In words: Antiproliferative activity (CCK-8 cell viability), B16F10. Conditions: Mus musculus, 72 h, read-out: Antiproliferative activity in cancerous cells, B16F10 (inhibition of cell growth); for inhibition at 3.3 µM: B16-F10, Compound concentration: 3.3 μM; for inhibition at 10 µM: B16-F10, Compound concentration: 10 μM. The method in brief:
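Attached B16F10 cells in 96-well plates were incubated with compound at 37° C for 72 h, followed by 10 μL CCK-8 reagent per well and a further 4 h incubation. A multi-well plate reader measured absorbance at 450 nm. Percent viability across replicates was calculated against DMSO vehicle-treated cells.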

The subject of assay [3] is A431 (epidermoid carcinoma). In words: Antiproliferative activity (CCK-8 cell viability), A431. Conditions: Homo sapiens, 72 h, read-out: Antiproliferative activity in cancerous cells, A431 (inhibition of cell growth); for inhibition at 3.3 µM: A-431, Compound concentration: 3.3 μM; for inhibition at 10 µM: A-431, Compound concentration: 10 μM. In a few lines: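 Cell viability of compound-treated A431 cells was measured with a Cell Counting Kit-8. Each well received 10 μL of CCK-8 after 72 h of compound exposure, followed by 4 h incubation at 37° C. and a 450 nm plate-reader measurement. Percent viability was calculated relative to DMSO controls across replicates.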

In a further assay the test system is HepG2 (liver cancer). In words: Antiproliferative activity (CCK-8 cell viability), HepG2. Conditions: Homo sapiens, 72 h, read-out: Antiproliferative activity in cancerous cells, HepG2 (inhibition of cell growth); for inhibition at 3.3 µM: Compound concentration: 3.3 μM; for inhibition at 10 µM: Compound concentration: 10 μM. The method in brief:
as §1

For a further assay, the system named is HeLa (cervical cancer). In words: Antiproliferative activity (CCK-8 cell viability), HeLa. Particulars: Homo sapiens, 72 h, read-out: Antiproliferative activity in cancerous cells, HELA (inhibition of cell growth); for inhibition at 3.3 µM: Compound concentration: 3.3 μM; for inhibition at 10 µM: Compound concentration: 10 μM. In a few lines: as §1
For assay [4], the system named is A549 (lung adenocarcinoma). In words: Antiproliferative activity (CCK-8 cell viability), A549. Particulars: Homo sapiens, 72 h; for inhibition at 3.3 µM: Compound concentration: 3.3 μM; for inhibition at 3.3 µM / inhibition at 10 µM: read-out: Antiproliferative activity in cancerous cells, A549 (inhibition of cell growth); for inhibition at 10 µM: Compound concentration: 10 μM. In a few lines: as §1

Eight molecules from patent US20260184663A1, “INDENE COMPOUNDS, PHARMACEUTICAL COMPOSITIONS THEREOF, AND THEIR THERAPEUTIC APPLICATIONS” (NucMito Pharmaceuticals co. Ltd., priority 2022, published 2026) can be followed below.

As to `COc1ccc(Oc2ccc(/C=C3/C(C)=C(CC(=O)O)c4cc(F)ccc43)cc2)cc1Cl` [C70, (Z)-2-(1-(4-(3-Chloro-4-methoxyphenoxy)benzylidene)-5-fluoro-2-methyl-1H-inden-3-yl)acetic acid], the inhibition at 3.3 µM with SW480 (colon cancer) was less than 30%; in assay [1] it was less than 30%; in assay [2], less than 30%; in assay [3], no less than 50%; in the assay with HepG2 (liver cancer) it was less than 30%; in the assay on HeLa (cervical cancer) it was less than 30%. Moreover, the inhibition at 3.3 µM in assay [4] is less than 30%. Moreover, the inhibition at 10 µM was less than 30% in the assay with SW480 (colon cancer); less than 30% in assay [1]; 30 to 50% in assay [2]; no less than 50% in assay [3]; no less than 50% in the assay on HepG2 (liver cancer); no less than 50% in the assay with HeLa (cervical cancer). Also, the inhibition at 10 µM in assay [4] lay within 30 to 50%. In addition, the inhibition at 30 µM with SW480 (colon cancer) is less than 30%; in assay [1] (Compound concentration: 30 μM, read-out: Antiproliferative activity in cancerous cells, MDA-MB-231), 30 to 50%.
On to `CC1=C(CC(=O)O)c2cc(F)ccc2/C1=C\c1ccc(Oc2ccc(F)c(Cl)c2)cc1` [C54, (Z)-2-(1-(4-(3-Chloro-4-fluorophenoxy)benzylidene)-5-fluoro-2-methyl-1H-inden-3-yl)acetic acid], for which the inhibition at 3.3 µM is less than 30% with SW480 (colon cancer); less than 30% in assay [1]; no less than 50% in assay [2]; no less than 50% in assay [3]; less than 30% in the assay on HepG2 (liver cancer); less than 30% with HeLa (cervical cancer). Moreover, the inhibition at 3.3 µM in assay [4] is less than 30%. Further, the inhibition at 10 µM in the assay with SW480 (colon cancer) was no less than 50%; in assay [1] it was no less than 50%; in assay [2], no less than 50%; in assay [3] it was no less than 50%; in the assay on HepG2 (liver cancer), 30 to 50%; in the assay with HeLa (cervical cancer), no less than 50%. The inhibition at 10 µM in assay [4] is less than 30%. For the same molecule, in assay [4] (Compound concentration: 30 μM, read-out: Antiproliferative activity in cancerous cells, A549), the inhibition at 30 µM was less than 30%.
For the molecule `CC1=C(CC(=O)O)c2cc(F)ccc2/C1=C\c1ccc(Oc2ccc(O)c(Cl)c2)cc1` [C81, (Z)-2-(1-(4-(3-Chloro-4-hydroxyphenoxy)benzylidene)-5-fluoro-2-methyl-1H-inden-3-yl)acetic acid], the inhibition at 3.3 µM in the assay on SW480 (colon cancer) is less than 30%; in assay [1], 30 to 50%; in assay [2] it was less than 30%; in assay [3], 30 to 50%; in the assay on HepG2 (liver cancer), less than 30%; with HeLa (cervical cancer) it was 30 to 50%. Also, the inhibition at 3.3 µM in assay [4] is 30 to 50%. The inhibition at 10 µM in the assay with SW480 (colon cancer) was less than 30%; in assay [1] it was no less than 50%; in assay [2], no less than 50%; in assay [3] it was no less than 50%; with HepG2 (liver cancer), no less than 50%; with HeLa (cervical cancer), no less than 50%. For the same molecule, the inhibition at 10 µM in assay [4] is no less than 50%.
`CC1=C(CC(=O)O)c2cc(I)ccc2/C1=C\c1ccc(Oc2ccc(F)cc2)cc1` [C28, (Z)-2-(1-(4-(4-Fluorophenoxy)benzylidene)-5-iodo-2-methyl-1H-inden-3-yl)-acetic acid]: the inhibition at 3.3 µM with SW480 (colon cancer) was less than 30%; in assay [1], less than 30%; in assay [2], 30 to 50%; in assay [3], less than 30%; with HepG2 (liver cancer), 30 to 50%; with HeLa (cervical cancer), 30 to 50%. Moreover, the inhibition at 3.3 µM in assay [4] fell in the range of 30 to 50%. Moreover, the inhibition at 10 µM (in the assay with SW480 (colon cancer); in assay [1]; in assay [2]; in assay [3]; in the assay with HepG2 (liver cancer); in the assay with HeLa (cervical cancer)) was no less than 50% in each case. The inhibition at 10 µM in assay [4] is no less than 50%.
Turning to `O=C(O)CC1=C(Cc2ccc(Oc3ccc(F)cc3)cc2)/C(=C/c2ccc(Cc3ccc(F)cc3)cc2)c2ccc(F)cc21` [A112, (Z)-2-(5-Fluoro-1-(4-(4-fluorobenzyl)benzylidene)-2-(4-(4-fluorophenoxy)-benzyl)-1H-inden-3-yl)acetic acid], the inhibition at 3.3 µM with SW480 (colon cancer) is no less than 50%; in assay [1], no less than 50%; in assay [2], 30 to 50%; in assay [3], no less than 50%; in the assay on HepG2 (liver cancer), 30 to 50%; with HeLa (cervical cancer) it was no less than 50%. Besides, the inhibition at 3.3 µM in assay [4] was no less than 50%. In addition, the inhibition at 10 µM (in the assay with SW480 (colon cancer); in assay [1]; in assay [2]; in assay [3]; with HepG2 (liver cancer); in the assay on HeLa (cervical cancer)) was no less than 50% in each case. In addition, in assay [4], the inhibition at 10 µM is no less than 50%.
For the molecule `CC1=C(CC(=O)O)c2cc(F)ccc2/C1=C\c1ccc(OCCc2ccc(F)cc2)cc1` [B31, (Z)-2-(5-Fluoro-1-(4-(4-fluorophenethoxy)benzylidene)-2-methyl-1H-inden-3-yl)acetic acid], the inhibition at 3.3 µM was less than 30% in the assay on SW480 (colon cancer); less than 30% in assay [1]; no less than 50% in assay [2]; 30 to 50% in assay [3]; less than 30% with HepG2 (liver cancer); less than 30% with HeLa (cervical cancer). Further, the inhibition at 3.3 µM in assay [4] was 30 to 50%. For the same molecule, the inhibition at 10 µM was less than 30% in the assay on SW480 (colon cancer); no less than 50% in assay [1]; no less than 50% in assay [2]; no less than 50% in assay [3]; no less than 50% in the assay with HepG2 (liver cancer); no less than 50% in the assay with HeLa (cervical cancer). Besides, the inhibition at 10 µM in assay [4] lay within 30 to 50%.
Turning to `CC1=C(CC(=O)O)c2cc(F)ccc2/C1=C\c1ccc(Oc2ccc(F)cc2Cl)cc1` [C68, (Z)-2-(1-(4-(2-Chloro-4-fluorophenoxy)benzylidene)-5-fluoro-2-methyl-1H-inden-3-yl)acetic acid], the inhibition at 3.3 µM in the assay with SW480 (colon cancer) was no less than 50%; in assay [1], less than 30%; in assay [2], less than 30%; in assay [3], 30 to 50%; with HepG2 (liver cancer), less than 30%; with HeLa (cervical cancer), less than 30%. For the same molecule, the inhibition at 3.3 µM in assay [4] was less than 30%. Further, the inhibition at 10 µM is no less than 50% with SW480 (colon cancer); less than 30% in assay [1]; less than 30% in assay [2]; no less than 50% in assay [3]; no less than 50% in the assay on HepG2 (liver cancer); less than 30% in the assay on HeLa (cervical cancer). Besides, the inhibition at 10 µM in assay [4] is no less than 50%.
On to `CC1=C(CC(=O)O)c2cc(F)ccc2/C1=C\c1ccc(Oc2cccc(Cl)c2)cc1` [C61, (Z)-2-(1-(4-(3-Chlorophenoxy)benzylidene)-5-fluoro-2-methyl-H-inden-3-yl)acetic acid], for which the inhibition at 3.3 µM in the assay with SW480 (colon cancer) is less than 30%; in assay [1], less than 30%; in assay [2], less than 30%; in assay [3] it was no less than 50%; with HepG2 (liver cancer), 30 to 50%; in the assay on HeLa (cervical cancer) it was 30 to 50%. The inhibition at 3.3 µM in assay [4] lay within 30 to 50%. In addition, the inhibition at 10 µM in the assay with SW480 (colon cancer) is less than 30%; in assay [1], less than 30%; in assay [2], less than 30%; in assay [3], no less than 50%; in the assay on HepG2 (liver cancer), 30 to 50%; with HeLa (cervical cancer), no less than 50%. Further, the inhibition at 10 µM in assay [4] was no less than 50%. Also, the inhibition at 30 µM in the assay with SW480 (colon cancer) was less than 30%.
